Values of other authors in paper PMC7504348 (Molecules, 2020).

System: AChE
Conditions: dataset for 2D-QSAR model, Ellman's method, galantamine as reference; cited from earlier work

SMILES | pIC50 (AChE dataset, Table S4)
COc1ccc2c(c1)[nH]c1c(C)nccc12 [CHEMBL269538] | 4.19
O=C(Nc1ccc(Cl)cc1)Nc1nc(-c2cc3cc([N+](=O)[O-])ccc3o2)cs1 [CHEMBL3617397] | 4.52
CCN(CC)Cc1cccc2oc3cc(OC)ccc3c12 [CHEMBL3127043] | 4.98
c1ccc(CNc2ccccc2)cc1 [CHEMBL237223] | 4.59
O=C1NC2=C(CNC/C2=C\c2ccc(Br)cc2)C(c2ccc(Br)cc2)N1 (stereo not shown) [CHEMBL2385768] | 4.75
O=C(O[C@H]1[C@H](Oc2ccc(/C=N/O)cc2)OC[C@@H](OC(=O)c2ccccc2)[C@H]1OC(=O)c1ccccc1)c1ccccc1 [CHEMBL500712] | 4.40
O=C(Nc1ccc(Cl)c(Cl)c1)Nc1nc(-c2cc3ccccc3o2)cs1 [CHEMBL3617375] | 4.28
CO/N=C\c1ccc(O[C@@H]2O[C@H](COC(C)=O)[C@@H](OC(C)=O)[C@H](OC(C)=O)[C@H]2OC(C)=O)cc1 [CHEMBL463856] | 4.33
COc1ccc2c(ccc[n+]2C)c1.[I-] [CHEMBL2018160] | 4.63
COc1ccc(C2NC(=O)NC(CCc3ccc(O)c(OC)c3)=C2C(=O)CCc2ccc(O)c(OC)c2)cc1 (stereo not shown) [CHEMBL2381434] | 4.67
Cc1ccc(CN(C(=O)/C=C/C(=O)N(Cc2ccc(C)cc2)c2ccc(F)cc2)c2ccc(F)cc2)cc1 [CHEMBL2296124] | 4.33
COc1ccccc1NC(=O)Nc1nc(-c2cc3ccccc3o2)cs1 [CHEMBL3617362] | 4.22
COc1cc(/C=C/c2ccc(OCCCCCCN(C)Cc3ccccc3)cc2)cc(OC)c1 [CHEMBL3132866] | 4.98
CCc1ccc(N(Cc2ccccc2)C(=O)/C=C/C(=O)N(Cc2ccccc2)c2ccc(CC)cc2)cc1 [CHEMBL2296113] | 4.21
O=C(Nc1ccc(F)cc1)Nc1nc(-c2cc3cc(Br)ccc3o2)cs1 [CHEMBL3617388] | 4.45
COc1cc2c(cc1O)C=[N+](C)CC2.O=C([O-])C(F)(F)F [CHEMBL1270150] | 4.73
CCC[C@H](NC(=O)OC(C)C)C(=O)N[C@H](C)c1nc2ccc(F)cc2s1 [CHEMBL2334732] | 4.86
Cc1ccc(CN(C(=O)/C=C/C(=O)N(Cc2ccc(C)cc2)c2ccc(I)cc2)c2ccc(I)cc2)cc1 [CHEMBL2296125] | 4.46
COc1ccc(NC(=O)Nc2nc(-c3cc4cc(Br)ccc4o3)cs2)cc1 [CHEMBL3617380] | 4.49
CCC[C@H](NC(=O)OCC(F)(F)F)C(=O)N[C@H](C)c1nc2ccc(F)cc2s1 [CHEMBL2334737] | 4.71
CCC[C@H](NC(=O)OCC)C(=O)N[C@H](C)c1nc2ccc(F)cc2s1 [CHEMBL2334730] | 4.64
CCCN(CCC)CCCCCCOc1ccc(/C=C/c2cc(OC)cc(OC)c2)cc1 [CHEMBL3133243] | 4.97
O=C(Nc1ccccc1)Nc1nc(-c2cc3cc(Br)ccc3o2)cs1 [CHEMBL3617382] | 4.63
CCc1ccc(N(Cc2ccc(C)cc2)C(=O)/C=C/C(=O)N(Cc2ccc(C)cc2)c2ccc(CC)cc2)cc1 [CHEMBL2296112] | 4.25

SMILES | pIC50 (AChE dataset, Table S4)
COc1cc(CCC(=O)C2=C(CCc3ccc(O)c(OC)c3)NC(=O)NC2c2ccc(O)cc2)ccc1O (stereo not shown) [CHEMBL2381433] | 4.58
COc1ccc2c(c1)[nH]c1cccc(CNC(C)C)c12 [CHEMBL3127216] | 4.84
COc1cc(/C=C/c2ccc(OCCCCCCN3CCCCC3)cc2)cc(OC)c1 [CHEMBL3133245] | 5.36
O=C(Nc1ccc(F)cc1)Nc1nc(-c2cc3cc([N+](=O)[O-])ccc3o2)cs1 [CHEMBL3617396] | 4.39
OC[C@H]1O[C@@H](Oc2ccc(/C=N/O)cc2)[C@H](O)[C@@H](O)[C@@H]1O [CHEMBL457684] | 4.78
COc1ccccc1/C=C1\CNCC2=C1NC(=O)NC2c1ccccc1OC (stereo not shown) [CHEMBL2385766] | 4.35
CC(=O)OC[C@H]1O[C@@H](Oc2ccc(/C=N/NC(N)=S)cc2)[C@H](OC(C)=O)[C@@H](OC(C)=O)[C@@H]1OC(C)=O [CHEMBL517342] | 4.19
CN(C)CCc1c[nH]c2ccc(O)cc12 [CHEMBL416526] | 4.94
Cc1nccc2c1[nH]c1ccccc12 [CHEMBL12014] | 4.23
CCOC(=O)c1c(C)nc2nc3c(c(N)c2c1-c1ccccc1)CCCC3 [CHEMBL253386] | 5.49
O=C1NC2=C(CNC/C2=C\c2cccc3ccccc23)C(c2cccc3ccccc23)N1 (stereo not shown) [CHEMBL2385773] | 4.83
O=[N+]([O-])c1cccc(/C=C2\CNCC3=C2NC(=S)NC3c2cccc([N+](=O)[O-])c2)c1 (stereo not shown) [CHEMBL2385779] | 4.42
COC(=O)[C@@H]1CCCN1CCCCCOc1ccc2c(=O)cc(-c3ccccc3)oc2c1C [CHEMBL2393074] | 4.75
COc1cc(/C=C/c2ccc(OCCCCCCN3CCOCC3)cc2)cc(OC)c1 [CHEMBL3133248] | 4.66
S=C1NC2=C(CNC/C2=C\c2ccc(Cl)cc2Cl)C(c2ccc(Cl)cc2Cl)N1 (stereo not shown) [CHEMBL2385784] | 4.53
CC1=NCCc2c1[nH]c1cc(O)ccc21 [CHEMBL129177] | 4.47
COc1cccc2c1C(=O)c1c(C)cc(=O)[nH]c1C2=O [CHEMBL1269160] | 4.57
NCCc1c(C(c2c[nH]c3ccccc23)C(O)CO)[nH]c2ccc(O)cc12 (stereo not shown) [CHEMBL3125443] | 4.90
O=C1NC2=C(CNC/C2=C\c2ccc(Cl)cc2Cl)C(c2ccc(Cl)cc2Cl)N1 (stereo not shown) [CHEMBL2385772] | 4.48
CCN(CC)Cc1ccc(OCCCCCCCCCCN2CCCCC2)cc1 [CHEMBL1085869] | 5.67
CC(C)[C@H](NC(=O)OCC(F)(F)C(F)(F)C(F)(F)F)C(=O)N[C@H](C)c1nc2ccc(F)cc2s1 [CHEMBL2334728] | 4.24
CC(C)[C@H](NC(=O)OCC(F)(F)F)C(=O)N[C@H](C)c1nc2ccc(F)cc2s1 [CHEMBL2334726] | 4.49
CCOc1ccc(N(Cc2ccccc2)C(=O)/C=C/C(=O)N(Cc2ccccc2)c2ccc(OCC)cc2)cc1 [CHEMBL2296117] | 4.18
COc1cc2ccnc3c2c(c1OC)-c1ccccc1C3=O [CHEMBL510090] | 4.72

SMILES | pIC50 (AChE dataset, Table S4)
COc1cc(/C=C/c2ccc(OCCCCCCN3CCC(O)CC3)cc2)cc(OC)c1 [CHEMBL3133247] | 4.81
CCC[C@H](NC(=O)OCC(Cl)(Cl)Cl)C(=O)N[C@H](C)c1nc2ccc(F)cc2s1 [CHEMBL2334736] | 4.72
CC(C)COC(=O)N[C@H](C(=O)N[C@H](C)c1nc2ccc(F)cc2s1)C(C)C [CHEMBL2334745] | 4.49
COc1cc2c(cc1O)C[N@+]1(C)CCc3cc(OC)c(OC)cc3[C@@H]1C2 [CHEMBL1270255] | 5.01
Cc1ccc(NC(=O)Nc2nc(-c3cc4cc(Br)ccc4o3)cs2)cc1 [CHEMBL3617381] | 4.49
COc1ccc2c3c([nH]c2c1)C(C)=NCC3 [CHEMBL340807] | 4.80
CCN(CC)Cc1cccc2[nH]c3cc(OC)ccc3c12 [CHEMBL3127217] | 4.99
CC(C)[C@H](NC(=O)OCC(F)(F)C(F)F)C(=O)N[C@H](C)c1nc2ccc(F)cc2s1 [CHEMBL2334727] | 4.72
CCC[C@H](NC(=O)OCC(F)(F)C(F)F)C(=O)N[C@H](C)c1nc2ccc(F)cc2s1 [CHEMBL2334738] | 4.69
COc1cc(/C=C/c2ccc(OCCCN(C)Cc3ccccc3)cc2)cc(OC)c1 [CHEMBL3133250] | 4.29
O=C(Nc1nc(-c2cc3ccccc3o2)cs1)Nc1ccccc1[N+](=O)[O-] [CHEMBL3617367] | 4.38
S=C1NC2=C(CNC/C2=C\c2ccc(Br)cc2)C(c2ccc(Br)cc2)N1 (stereo not shown) [CHEMBL2385780] | 4.88
CC(C)NCc1cccc2[nH]c3cc(O)ccc3c12 [CHEMBL3127219] | 4.92
COc1cc(/C=C/c2ccc(OCCCCCCN3CCCCC3C)cc2)cc(OC)c1 (stereo not shown) [CHEMBL3133246] | 5.45
CCC[C@H](NC(=O)OCC(F)(F)C(F)(F)C(F)(F)F)C(=O)N[C@H](C)c1nc2ccc(F)cc2s1 [CHEMBL2334739] | 4.52
O=C1NC2=C(CNC/C2=C\c2ccc(F)cc2)C(c2ccc(F)cc2)N1 (stereo not shown) [CHEMBL2385771] | 4.30
O=C(Nc1nc(-c2cc3ccccc3o2)cs1)Nc1ccccc1F [CHEMBL3617370] | 4.51
CC(C)[C@H](NC(=O)OCCBr)C(=O)N[C@H](C)c1nc2ccc(F)cc2s1 [CHEMBL2334747] | 4.51
O=C(Nc1ccc(F)cc1)Nc1nc(-c2cc3ccccc3o2)cs1 [CHEMBL3617372] | 4.26
CC(C)[C@H](NC(=O)OCC(Cl)(Cl)Cl)C(=O)N[C@H](C)c1nc2ccc(F)cc2s1 [CHEMBL2334725] | 4.70
Fc1ccccc1/C=C1\CNCC2=C1NC(=S)NC2c1ccccc1F (stereo not shown) [CHEMBL2385777] | 4.34
COc1ccc(NC(=O)Nc2nc(-c3cc4cc([N+](=O)[O-])ccc4o3)cs2)cc1 [CHEMBL3617393] | 4.47
